Measurements from patent US20230094922A1, “METHODS OF THERAPEUTIC PROGNOSTICATION” (GENETIKAPLUS LTD., priority 2020, published 2023).

Tested on: iPSC-derived cortical neurons
Test: Pre- and post-synaptic marker (Synapsin, PSD95) puncta and colocalization imaging analysis
Type: cell-based, human
Conditions: for intact synapses (colocalization of pre- and post-synaptic terminals), treated vs untreated: 7 days after treatment (Bupropion also 3 days)
Protocol: iPSC differentiation into neurons-iPSCs were seeded at a density of 3×10^6 cells/well on a hESC-qualified Matrigel pre-coated 6-well plate and incubated at 37° C., 5% CO2 overnight. Differentiation was initiated the following day (day 0) after verifying that 100% confluency was reached. Differentiation media was added daily according to the following order: […]7 (day 15 onward) similar to a previously published protocol developed by for rapid differentiation to cortical neurons. The components of the described media, Q1-7, are provided in Appendix 1. Cells were assessed for differentiation efficiency and cell death on a daily basis. On day 9, differentiated neurons were re-plated on either 96-well plates (destined for staining) or 12-well plates (destined for RNA extraction) that were coated with 15 μg/mL Poly-ornithine diluted in PBS (overnight incubation at 37° C.), followed by 1 μg/mL Laminin and 2 μg/mL Fibronectin diluted in PBS (overnight incubation at 37° C.): Neurons were first rinsed with pre-warmed PBS and 1 ml/well of Accutase was added for 35 minutes at 37° C., 5% CO2. DNAse1 (0.5 mg/mL) was then added for 10 additional minutes. 3 ml of pre-warmed Neurobasal media was added to each well and neurons were gently collected using a 5 ml […]. Wells were then verified for the presence of any remaining neurons. Neurons were spun down and resuspended in Q6 media. Neurons were seeded at a density of 150,000 cells/cm^2 placed back at 37° C. Following four hours of incubation, media was changed to Q6 media (150 μl per 96-well and 1 ml per 12-well). […] For dendritic arborization analysis, pre/post-synaptic markers and colocalization analysis; α-Syn, PSD95 and MAP2 primary antibodies were used. Following washes, fluorophore-coupled secondary antibodies were incubated in the blocking solution for 1 hour at room temperature. The cells were counter-stained with 4',6-diamidino-2-phenylindole (DAPI) for nuclei detection for 15 minutes at room temperature followed by washes with PBS. Imaging was performed using Nikon Spinning Disk Confocal microscope. For imaging of pre- and post-synaptic markers, images were acquired with a 100× objective in z-stacks. For dendritic arborization analysis, images were acquired with a 20× objective in z-stacks. For imaging of dendritic spines, during culture treatment described in materials and methods, cells were infected at Day 20 with human syn-GFP or mKate virus and stained for GFP or mKate. Cells were fixed as described at day 35 and stained with antibodies against GFP or mKate respectively. Images were acquired using the Nikon Confocal Alit with a 60× objective and a 2× digital zoom in z-stacks and using the Nikon spinning disk Microscope with a 100× objective in z-stacks. Neuronal and synaptic morphology was assessed using the Neurolucida software, pre- and post-synaptic marker analysis was performed using CellProfiler and total dendritic length was measured using Fiji software. Immunohistochemical examination was carried out on the induced neuronal cells.

`CNCCC=C1c2ccccc2CCc2ccccc21` [Nortriptyline, 1-Propanamine, 3-(10,11-dihydro-5H-dibenzo[a,d]cyclohepten-5-ylidene)-N-methyl-] was tested, and the “density of post-synaptic terminals (PSD95 puncta), responders vs non-responders” value (after treatment) was “increase in density was also present”, the “intact synapses, responders vs non-responders” value (after treatment) was “significantly more intact synapses” and the “intact synapses (colocalization of pre- and post-synaptic terminals), treated vs untreated” value (neurons from non-responders) was “no change or even a slight decrease”. The “density of post-synaptic terminals (distance between PSD95 puncta), after vs before treatment” value (neurons from responders, 7 days after treatment) was “significant increase in density” and the “intact synapses (colocalization of pre- and post-synaptic terminals), treated vs untreated” value (neurons from responders) was “significantly upregulated”.
